Values of other authors as cited in patent US11725135B2 (priority 2019, dated 2023).

SMILES | concentration above which precipitation occurs / solubility [µg/mL]
F[Si-2](F)(F)(F)(F)F.[Na+].[Na+] [Na2SiF6] | 6400
F[Si-2](F)(F)(F)(F)F.[K+].[K+] [Example K2SiF6, potassium hexafluorosilicate] | 1800
